From US9758412B2, “Device for purifying liquid wastewater, and method for cleaning liquid wastewater using said device” (CENTRE NATIONAL DE LA RECHERCHE SCIENTIFIQUE (C.N.R.S.), priority 2012, dated 2017)

Assays:
Xenopus larvae [1] = settings: stage 50 to 54, devices: diuron-spiked tank water after 10 days of circulation, T(+): cyclophosphamide 20 mg/L in river water
Description: The mass of Tubifex tubifex worms is of the order of 500 mg (fresh weight) per sanitizing device and is representative of the average density of these oligochaete worms in the natural environment (56 000 oligochaete worms/m^2 of river).
The acute toxicity of the sanitized water is measured by incubating Xenopus larvae, selected at a stage of development of 50 to 54 […], for a period of 12 days with said sanitized water on larvae. This measurement permits observation of the signs of intoxication of the larvae induced by exposure to the water obtained at the outlet of the sanitizing device at the end of treatment.

Xenopus larvae [2] = settings: cyclophosphamide 20 mg/L in river water; compared with negative control T(−) and sanitized water D8

SMILES: O=P1(N(CCCl)CCCl)NCCCO1 (stereo not drawn) [T(+), cyclophosphamide]
- Toxicity, 1 to 5 days (Xenopus larvae [1]): Lethal
- Toxicity, 5 to 12 days (Xenopus larvae [1]): Lethal
- Genotoxicity (induction of micronuclei) (Xenopus larvae [2]): confirmed genotoxicity
